Tests used:
[1] = biological target: T1, FLT3(R834Q) (Homo sapiens, UniProt P36888, R834Q); assay: KINOMEscan at 1 μM, FLT3(R834Q); format: binding; settings: 1000 nM, read-out: Percent Control
T1 construct: purchased Eurofins DiscoverX KINOMEscan
Description: (§1) Supplement cells-12-00287-s001.zip/File S2. KinomeScan data for the CAMKK2 probe and negative control.xlsx, sheet "SGC-CAMKK2-1N" | column: Percent Control

[2] = biological target: T2, GRK1 (Homo sapiens, UniProt Q15835); assay: KINOMEscan at 1 μM, GRK1; format: binding; settings: 1000 nM, read-out: Percent Control
T2 construct: purchased Eurofins DiscoverX KINOMEscan
Description: as §1

[3] = biological target: T3, TIE1 (Homo sapiens, UniProt P35590); assay: KINOMEscan binding assay at 1 μM, TIE1; settings: Compound Concentration 1000 nM; read-out: Percent Control
T3 construct: purchased Eurofins DiscoverX KINOMEscan
T3 sequence (P35590 22-1138): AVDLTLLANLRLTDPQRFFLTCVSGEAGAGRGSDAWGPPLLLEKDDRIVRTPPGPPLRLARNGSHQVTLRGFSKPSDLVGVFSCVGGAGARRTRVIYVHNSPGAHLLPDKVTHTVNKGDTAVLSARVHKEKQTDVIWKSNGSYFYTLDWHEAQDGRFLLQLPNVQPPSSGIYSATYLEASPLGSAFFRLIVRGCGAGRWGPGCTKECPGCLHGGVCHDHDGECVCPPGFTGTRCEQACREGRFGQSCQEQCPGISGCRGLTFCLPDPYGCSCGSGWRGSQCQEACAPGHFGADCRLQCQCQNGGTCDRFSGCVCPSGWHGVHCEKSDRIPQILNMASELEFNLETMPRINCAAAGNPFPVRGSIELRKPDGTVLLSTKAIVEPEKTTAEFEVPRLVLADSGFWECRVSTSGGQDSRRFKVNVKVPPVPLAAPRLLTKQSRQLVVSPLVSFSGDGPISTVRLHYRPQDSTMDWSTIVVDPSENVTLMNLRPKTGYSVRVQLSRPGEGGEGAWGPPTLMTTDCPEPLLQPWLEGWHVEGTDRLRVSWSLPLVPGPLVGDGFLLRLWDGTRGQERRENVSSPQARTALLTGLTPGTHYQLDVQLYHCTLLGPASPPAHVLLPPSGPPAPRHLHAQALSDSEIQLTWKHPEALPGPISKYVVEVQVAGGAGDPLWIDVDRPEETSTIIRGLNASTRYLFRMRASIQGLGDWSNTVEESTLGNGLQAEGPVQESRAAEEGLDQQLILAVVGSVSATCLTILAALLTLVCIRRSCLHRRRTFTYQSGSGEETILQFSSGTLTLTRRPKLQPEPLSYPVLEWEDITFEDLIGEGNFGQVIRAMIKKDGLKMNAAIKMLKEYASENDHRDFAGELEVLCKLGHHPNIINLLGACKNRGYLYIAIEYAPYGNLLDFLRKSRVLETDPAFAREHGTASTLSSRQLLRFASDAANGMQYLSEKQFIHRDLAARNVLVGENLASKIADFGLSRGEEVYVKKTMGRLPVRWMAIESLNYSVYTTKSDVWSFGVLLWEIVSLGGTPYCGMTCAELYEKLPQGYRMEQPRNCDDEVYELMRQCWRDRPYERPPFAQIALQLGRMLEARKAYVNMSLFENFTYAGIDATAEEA
Description: as §1

[4] = biological target: T4, IGF1R (Homo sapiens, UniProt P08069); assay: KINOMEscan binding assay at 1 μM, IGF1R; settings: Compound Concentration 1000 nM; read-out: Percent Control
T4 construct: purchased Eurofins DiscoverX KINOMEscan
Description: as §1

[5] = biological target: T5, ERBB2 (Homo sapiens, UniProt P04626); assay: KINOMEscan binding assay at 1 μM, ERBB2; settings: Compound Concentration 1000 nM; read-out: Percent Control
T5 construct: purchased Eurofins DiscoverX KINOMEscan
Description: as §1

[6] = biological target: T6, ABL1(Q252H)-nonphosphorylated (Homo sapiens, UniProt P00519, Q252H); assay: KINOMEscan at 1 μM, ABL1(Q252H)-nonphosphorylated; format: binding; settings: 1000 nM, read-out: Percent Control
T6 construct: purchased Eurofins DiscoverX KINOMEscan
Description: as §1

[7] = biological target: T7, MET (Homo sapiens, UniProt P08581); assay: KINOMEscan at 1 μM, MET; format: binding; settings: 1000 nM, read-out: Percent Control
T7 construct: purchased Eurofins DiscoverX KINOMEscan
T7 sequence (P08581 25-1390): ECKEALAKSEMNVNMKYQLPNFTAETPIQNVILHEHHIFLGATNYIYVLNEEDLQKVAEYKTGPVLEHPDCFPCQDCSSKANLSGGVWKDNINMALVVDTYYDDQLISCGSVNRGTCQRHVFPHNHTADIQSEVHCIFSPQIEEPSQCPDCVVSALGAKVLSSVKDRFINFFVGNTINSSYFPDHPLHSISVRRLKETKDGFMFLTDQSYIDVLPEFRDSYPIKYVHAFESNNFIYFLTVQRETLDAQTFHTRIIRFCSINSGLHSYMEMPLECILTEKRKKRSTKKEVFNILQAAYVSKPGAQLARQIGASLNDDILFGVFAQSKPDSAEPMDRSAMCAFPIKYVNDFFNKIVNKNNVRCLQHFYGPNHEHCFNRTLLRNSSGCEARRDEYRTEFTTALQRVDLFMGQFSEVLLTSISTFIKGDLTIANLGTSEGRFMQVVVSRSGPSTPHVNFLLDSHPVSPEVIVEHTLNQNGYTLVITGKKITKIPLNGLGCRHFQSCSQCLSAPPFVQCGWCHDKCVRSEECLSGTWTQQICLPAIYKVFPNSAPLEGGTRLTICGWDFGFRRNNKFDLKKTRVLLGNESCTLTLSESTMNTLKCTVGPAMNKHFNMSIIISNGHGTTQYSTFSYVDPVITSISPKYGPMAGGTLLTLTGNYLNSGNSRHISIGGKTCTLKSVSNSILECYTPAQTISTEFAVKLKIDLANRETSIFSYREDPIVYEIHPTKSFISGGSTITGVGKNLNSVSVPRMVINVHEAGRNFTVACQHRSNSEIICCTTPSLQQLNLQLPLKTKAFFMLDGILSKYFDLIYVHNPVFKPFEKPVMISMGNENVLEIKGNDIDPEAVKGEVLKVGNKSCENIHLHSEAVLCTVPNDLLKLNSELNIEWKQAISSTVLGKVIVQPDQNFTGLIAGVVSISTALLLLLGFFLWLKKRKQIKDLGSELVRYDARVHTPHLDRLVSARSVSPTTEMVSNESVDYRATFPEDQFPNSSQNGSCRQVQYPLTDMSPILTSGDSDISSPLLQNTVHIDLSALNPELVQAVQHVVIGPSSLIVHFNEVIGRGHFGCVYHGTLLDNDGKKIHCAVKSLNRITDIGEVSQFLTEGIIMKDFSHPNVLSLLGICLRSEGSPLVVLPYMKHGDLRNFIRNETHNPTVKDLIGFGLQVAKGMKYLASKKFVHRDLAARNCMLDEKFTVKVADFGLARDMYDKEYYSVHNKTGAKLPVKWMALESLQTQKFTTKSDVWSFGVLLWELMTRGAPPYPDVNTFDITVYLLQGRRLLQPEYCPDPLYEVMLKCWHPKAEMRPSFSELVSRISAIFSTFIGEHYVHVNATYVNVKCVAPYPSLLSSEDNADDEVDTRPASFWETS
Description: as §1

[8] = biological target: T8, CAMK2B (Homo sapiens, UniProt Q13554); assay: KINOMEscan at 1 μM, CAMK2B; format: binding; settings: 1000 nM, read-out: Percent Control
T8 construct: purchased Eurofins DiscoverX KINOMEscan
Description: as §1

[9] = biological target: T9, CSF1R (Homo sapiens, UniProt P07333); assay: KINOMEscan at 1 μM, CSF1R; format: binding; settings: 1000 nM, read-out: Percent Control
T9 construct: purchased Eurofins DiscoverX KINOMEscan
Description: as §1

[10] = biological target: T10, BMPR1B (Homo sapiens, UniProt O00238); assay: KINOMEscan at 1 μM, BMPR1B; format: binding; settings: 1000 nM, read-out: Percent Control
T10 construct: purchased Eurofins DiscoverX KINOMEscan
Description: as §1

[11] = biological target: T11, PRKCQ (Homo sapiens, UniProt Q04759); assay: KINOMEscan binding assay at 1 μM, PRKCQ; settings: Compound Concentration 1000 nM; read-out: Percent Control
T11 construct: purchased Eurofins DiscoverX KINOMEscan
Description: as §1

[12] = biological target: T12, WNK3 (Homo sapiens, UniProt Q9BYP7); assay: KINOMEscan at 1 μM, WNK3; format: binding; settings: 1000 nM, read-out: Percent Control
T12 construct: purchased Eurofins DiscoverX KINOMEscan
Description: as §1

[13] = biological target: T13, FGFR4 (Homo sapiens, UniProt P22455); assay: KINOMEscan binding assay at 1 μM, FGFR4; settings: Compound Concentration 1000 nM; read-out: Percent Control
T13 construct: purchased Eurofins DiscoverX KINOMEscan
Description: as §1

[14] = biological target: T14, ABL1(T315I)-nonphosphorylated (Homo sapiens, UniProt P00519, T315I); assay: KINOMEscan at 1 μM, ABL1(T315I)-nonphosphorylated; format: binding; settings: 1000 nM, read-out: Percent Control
T14 construct: purchased Eurofins DiscoverX KINOMEscan
Description: as §1

[15] = biological target: T15, MAP3K15 (Homo sapiens, UniProt Q6ZN16); assay: KINOMEscan binding assay at 1 μM, MAP3K15; settings: Compound Concentration 1000 nM; read-out: Percent Control
T15 construct: purchased Eurofins DiscoverX KINOMEscan
Description: as §1

[16] = biological target: T16, MLK3 (Homo sapiens, UniProt Q16584); assay: KINOMEscan binding assay at 1 μM, MLK3; settings: Compound Concentration 1000 nM; read-out: Percent Control
T16 construct: purchased Eurofins DiscoverX KINOMEscan
Description: as §1

[17] = biological target: T17, SIK2 (Homo sapiens, UniProt Q9H0K1); assay: KINOMEscan at 1 μM, SIK2; format: binding; settings: 1000 nM, read-out: Percent Control
T17 construct: purchased Eurofins DiscoverX KINOMEscan
T17 sequence (Q9H0K1 whole entry): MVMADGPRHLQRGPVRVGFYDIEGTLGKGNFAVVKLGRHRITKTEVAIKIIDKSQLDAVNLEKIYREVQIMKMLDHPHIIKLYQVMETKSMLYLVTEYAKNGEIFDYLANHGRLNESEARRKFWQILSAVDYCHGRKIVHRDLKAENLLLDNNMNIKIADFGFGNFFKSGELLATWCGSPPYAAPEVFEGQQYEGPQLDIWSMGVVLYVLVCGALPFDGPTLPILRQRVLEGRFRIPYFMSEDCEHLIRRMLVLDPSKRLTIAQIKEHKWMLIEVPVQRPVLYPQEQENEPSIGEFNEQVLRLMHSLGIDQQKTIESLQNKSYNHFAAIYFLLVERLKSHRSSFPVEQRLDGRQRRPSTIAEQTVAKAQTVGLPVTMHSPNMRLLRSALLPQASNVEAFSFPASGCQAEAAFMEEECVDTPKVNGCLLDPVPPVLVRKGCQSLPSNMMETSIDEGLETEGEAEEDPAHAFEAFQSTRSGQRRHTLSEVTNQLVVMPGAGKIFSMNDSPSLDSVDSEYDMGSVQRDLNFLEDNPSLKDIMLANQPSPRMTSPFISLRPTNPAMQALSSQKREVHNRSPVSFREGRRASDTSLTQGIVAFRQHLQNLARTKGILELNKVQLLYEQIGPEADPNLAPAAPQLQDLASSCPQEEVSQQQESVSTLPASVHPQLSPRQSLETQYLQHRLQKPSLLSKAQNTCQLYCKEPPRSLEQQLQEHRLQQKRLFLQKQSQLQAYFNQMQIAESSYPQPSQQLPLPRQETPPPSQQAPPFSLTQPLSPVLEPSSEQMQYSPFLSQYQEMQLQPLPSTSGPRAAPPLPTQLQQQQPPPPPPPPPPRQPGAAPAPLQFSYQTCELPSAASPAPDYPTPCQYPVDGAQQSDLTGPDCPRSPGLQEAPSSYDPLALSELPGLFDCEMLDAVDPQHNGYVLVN
Description: as §1

[18] = biological target: T18, MYLK4 (Homo sapiens, UniProt Q86YV6); assay: KINOMEscan at 1 μM, MYLK4; format: binding; settings: 1000 nM, read-out: Percent Control
T18 construct: purchased Eurofins DiscoverX KINOMEscan
Description: as §1

[19] = biological target: T19, MEK6 (Homo sapiens, UniProt P52564); assay: KINOMEscan 1 μM, MEK6; format: binding; settings: 1000 nM; Entrez MAP2K6; read-out: Percent Control
T19 construct: purchased Eurofins DiscoverX KINOMEscan
T19 sequence (P52564 whole entry): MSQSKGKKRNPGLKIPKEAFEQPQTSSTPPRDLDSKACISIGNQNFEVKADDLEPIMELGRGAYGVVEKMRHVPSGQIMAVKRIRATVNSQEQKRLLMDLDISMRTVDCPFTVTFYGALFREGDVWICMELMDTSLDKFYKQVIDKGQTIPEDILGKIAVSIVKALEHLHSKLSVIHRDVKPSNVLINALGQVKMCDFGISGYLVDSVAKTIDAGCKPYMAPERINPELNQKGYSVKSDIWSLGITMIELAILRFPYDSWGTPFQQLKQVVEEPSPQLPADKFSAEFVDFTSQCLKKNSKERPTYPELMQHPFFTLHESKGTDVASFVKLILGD
Description: (§2) Supplement cells-12-00287-s001.zip/File S2. KinomeScan data for the CAMKK2 probe and negative control.xlsx, sheet "SGC-CAMKK2-1" | column: Percent Control

[20] = biological target: T20, FLT3(K663Q) (Homo sapiens, UniProt P36888, K663Q); assay: KINOMEscan 1 μM, FLT3(K663Q); format: binding; settings: 1000 nM; Entrez FLT3; read-out: Percent Control
T20 construct: purchased Eurofins DiscoverX KINOMEscan
Description: as §2

[21] = biological target: T21, MYLK2 (Homo sapiens, UniProt Q9H1R3); assay: KINOMEscan 1 μM, MYLK2; format: binding; settings: 1000 nM; Entrez MYLK2; read-out: Percent Control
T21 construct: purchased Eurofins DiscoverX KINOMEscan
T21 sequence (Q9H1R3 whole entry): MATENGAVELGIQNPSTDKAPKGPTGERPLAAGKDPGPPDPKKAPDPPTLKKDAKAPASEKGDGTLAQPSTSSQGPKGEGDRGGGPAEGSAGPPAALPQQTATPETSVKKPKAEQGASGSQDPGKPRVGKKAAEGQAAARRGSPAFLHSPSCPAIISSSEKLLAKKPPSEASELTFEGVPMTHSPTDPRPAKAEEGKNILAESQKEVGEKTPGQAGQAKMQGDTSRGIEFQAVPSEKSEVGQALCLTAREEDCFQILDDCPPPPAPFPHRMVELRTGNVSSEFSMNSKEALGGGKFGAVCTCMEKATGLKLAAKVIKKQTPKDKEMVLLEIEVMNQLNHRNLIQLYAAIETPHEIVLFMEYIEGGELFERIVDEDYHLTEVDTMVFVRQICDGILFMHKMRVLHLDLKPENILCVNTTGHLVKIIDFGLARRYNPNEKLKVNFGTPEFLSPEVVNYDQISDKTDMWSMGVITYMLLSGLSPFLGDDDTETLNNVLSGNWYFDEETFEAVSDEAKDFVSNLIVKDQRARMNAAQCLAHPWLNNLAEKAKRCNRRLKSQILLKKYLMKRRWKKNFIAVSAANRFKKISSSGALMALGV
Description: as §2

[22] = biological target: T22, PAK6 (Homo sapiens, UniProt Q9NQU5); assay: KINOMEscan 1 μM, PAK6; format: binding; settings: 1000 nM; Entrez PAK6; read-out: Percent Control
T22 construct: purchased Eurofins DiscoverX KINOMEscan
Description: as §2

[23] = biological target: T23, KIT(L576P) (Homo sapiens, UniProt P10721, L576P); assay: KINOMEscan 1 μM, KIT(L576P); format: binding; settings: 1000 nM; Entrez KIT; read-out: Percent Control
T23 construct: purchased Eurofins DiscoverX KINOMEscan
Description: as §2

[24] = biological target: T24, BRK (Homo sapiens, UniProt Q13882); assay: KINOMEscan 1 μM, BRK; format: binding; settings: 1000 nM; Entrez PTK6; read-out: Percent Control
T24 construct: purchased Eurofins DiscoverX KINOMEscan
Description: as §2

[25] = biological target: T25, BMX (Homo sapiens, UniProt P51813); assay: KINOMEscan 1 μM, BMX; format: binding; settings: 1000 nM; Entrez BMX; read-out: Percent Control
T25 construct: purchased Eurofins DiscoverX KINOMEscan
Description: as §2

[26] = biological target: T26, RIPK5 (Homo sapiens, UniProt Q6XUX3); assay: DiscoverX KINOMEscan binding assay at 1 μM, RIPK5; settings: RIPK5 (DSTYK); Compound Concentration 1000 nM; read-out: Percent Control
T26 construct: purchased Eurofins DiscoverX KINOMEscan
Description: as §2

[27] = biological target: T27, PIK3CA(E542K) (Homo sapiens, UniProt P42336, E542K); assay: DiscoverX KINOMEscan binding assay at 1 μM, PIK3CA(E542K); settings: Compound Concentration 1000 nM, read-out: Percent Control
T27 construct: purchased Eurofins DiscoverX KINOMEscan
Description: as §2

[28] = biological target: T28, MAP4K3 (Homo sapiens, UniProt Q8IVH8); assay: KINOMEscan 1 μM, MAP4K3; format: binding; settings: 1000 nM; Entrez MAP4K3; read-out: Percent Control
T28 construct: purchased Eurofins DiscoverX KINOMEscan
Description: as §2

[29] = biological target: T29, SGK (Homo sapiens, UniProt O00141); assay: KINOMEscan 1 μM, SGK; format: binding; settings: 1000 nM; Entrez SGK1; read-out: Percent Control
T29 construct: purchased Eurofins DiscoverX KINOMEscan
T29 sequence (O00141 whole entry): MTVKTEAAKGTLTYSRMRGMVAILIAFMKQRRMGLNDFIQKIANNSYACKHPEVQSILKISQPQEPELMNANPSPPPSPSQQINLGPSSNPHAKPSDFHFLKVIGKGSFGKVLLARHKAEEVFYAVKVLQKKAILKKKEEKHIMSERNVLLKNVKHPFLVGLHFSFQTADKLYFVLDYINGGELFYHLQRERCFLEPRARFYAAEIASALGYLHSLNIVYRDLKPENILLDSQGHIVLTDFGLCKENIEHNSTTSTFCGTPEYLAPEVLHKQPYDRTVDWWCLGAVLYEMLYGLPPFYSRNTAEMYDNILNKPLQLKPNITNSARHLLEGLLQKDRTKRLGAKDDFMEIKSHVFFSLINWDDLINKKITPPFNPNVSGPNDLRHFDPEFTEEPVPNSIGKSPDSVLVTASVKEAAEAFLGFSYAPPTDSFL
Description: as §2

[30] = biological target: T30, EGFR(L747-E749del, A750P) (Homo sapiens, UniProt P00533, A750P/DEL747-749); assay: KINOMEscan 1 μM, EGFR(L747-E749del, A750P); format: binding; settings: 1000 nM; Entrez EGFR; read-out: Percent Control
T30 construct: purchased Eurofins DiscoverX KINOMEscan
Description: as §2

[31] = biological target: T31, DRAK1 (Homo sapiens, UniProt Q9UEE5); assay: KINOMEscan 1 μM, DRAK1; format: binding; settings: 1000 nM; Entrez STK17A; read-out: Percent Control
T31 construct: purchased Eurofins DiscoverX KINOMEscan
Description: as §2

[32] = biological target: T32, CDC2L2 (Homo sapiens, UniProt Q9UQ88); assay: KINOMEscan 1 μM, CDC2L2; format: binding; settings: 1000 nM; Entrez CDC2L2; read-out: Percent Control
T32 construct: purchased Eurofins DiscoverX KINOMEscan
Description: as §2

[33] = biological target: T33, NEK4 (Homo sapiens, UniProt P51957); assay: KINOMEscan 1 μM, NEK4; format: binding; settings: 1000 nM; Entrez NEK4; read-out: Percent Control
T33 construct: purchased Eurofins DiscoverX KINOMEscan
Description: as §2

O=C(O)c1ccc(-c2coc3ncc(-c4ccccc4)cc23)cc1Cl [SGC-CAMKK2-1N (UNC-YL-83)]
remaining binding at 1 µM [1]: 84%
remaining binding at 1 µM [2]: 92%
remaining binding at 1 µM [3]: 100%
remaining binding at 1 µM [4]: 100%
remaining binding at 1 µM [5]: 100%
remaining binding at 1 µM [6]: 59%
remaining binding at 1 µM [7]: 91%
remaining binding at 1 µM [8]: 69%
remaining binding at 1 µM [9]: 100%
remaining binding at 1 µM [10]: 65%
remaining binding at 1 µM [11]: 100%
remaining binding at 1 µM [12]: 95%
remaining binding at 1 µM [13]: 100%
remaining binding at 1 µM [14]: 45%
remaining binding at 1 µM [15]: 100%
remaining binding at 1 µM [16]: 100%
remaining binding at 1 µM [17]: 93%
remaining binding at 1 µM [18]: 91%

Cc1cccc(-c2cnc3occ(-c4ccc(C(=O)O)c(C5CCCC5)c4)c3c2)c1 [SGC-CAMKK2-1 (YL-36)]
remaining binding at 1 µM [19]: 100%
remaining binding at 1 µM [20]: 100%
remaining binding at 1 µM [21]: 100%
remaining binding at 1 µM [22]: 67%
remaining binding at 1 µM [23]: 100%
remaining binding at 1 µM [24]: 100%
remaining binding at 1 µM [25]: 100%
remaining binding at 1 µM [26]: 100%
remaining binding at 1 µM [27]: 100%
remaining binding at 1 µM [28]: 78%
remaining binding at 1 µM [29]: 86%
remaining binding at 1 µM [30]: 87%
remaining binding at 1 µM [31]: 100%
remaining binding at 1 µM [32]: 84%
remaining binding at 1 µM [33]: 100%
